Results from PubChem BioAssay (NCI).
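48-hour exposure; five concentrations; linearly interpolated endpoints. GI50: concentration for 50% inhibition of growth. Definition used: TGI = concentration required for complete inhibition of growth.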

Key:
Experiment in all cases: NCI anticancer screen, dose series, 48 h
MCF7 breast = tested on: MCF7 breast
A498 renal = tested on: A498 renal
HOP-92 NSCLC = tested on: HOP-92 NSCLC
SK-MEL-2 melanoma = tested on: SK-MEL-2 melanoma
UACC-257 melanoma = tested on: UACC-257 melanoma
SF-539 CNS = tested on: SF-539 CNS
HCT-15 colon = tested on: HCT-15 colon
SN12C renal = tested on: SN12C renal
NCI-H226 lung = tested on: NCI-H226 lung
SNB-19 CNS = tested on: SNB-19 CNS
RXF 393 renal = tested on: RXF 393 renal
HL-60(TB) leukemia = tested on: HL-60(TB) leukemia
NCI-H460 lung = tested on: NCI-H460 lung
HCT-116 colon = tested on: HCT-116 colon
DU-145 prostate = tested on: DU-145 prostate
MDA-MB-468 breast = tested on: MDA-MB-468 breast
K-562 leukemia = tested on: K-562 leukemia
786-0 renal = tested on: 786-0 renal
HCC-2998 colon = tested on: HCC-2998 colon
SW-620 colon = tested on: SW-620 colon
CAKI-1 renal = tested on: CAKI-1 renal
OVCAR-5 ovarian = tested on: OVCAR-5 ovarian
SF-295 CNS = tested on: SF-295 CNS
KM12 colon = tested on: KM12 colon
BT-549 breast = tested on: BT-549 breast
MDA-MB-231 breast = tested on: MDA-MB-231 breast
MDA-MB-435 = tested on: MDA-MB-435
LOX IMVI melanoma = tested on: LOX IMVI melanoma
OVCAR-3 ovarian = tested on: OVCAR-3 ovarian
UACC-62 melanoma = tested on: UACC-62 melanoma
CCRF-CEM leukemia = tested on: CCRF-CEM leukemia
PC-3 prostate = tested on: PC-3 prostate
T-47D breast = tested on: T-47D breast
SK-OV-3 ovarian = tested on: SK-OV-3 ovarian
COLO 205 colon = tested on: COLO 205 colon
NCI-H522 lung = tested on: NCI-H522 lung
M14 melanoma = tested on: M14 melanoma
OVCAR-4 ovarian = tested on: OVCAR-4 ovarian
NCI-H23 lung = tested on: NCI-H23 lung
MALME-3M melanoma = tested on: MALME-3M melanoma
SK-MEL-28 melanoma = tested on: SK-MEL-28 melanoma
OVCAR-8 ovarian = tested on: OVCAR-8 ovarian
TK-10 renal = tested on: TK-10 renal
HT29 colon = tested on: HT29 colon
UO-31 renal = tested on: UO-31 renal
ACHN renal = tested on: ACHN renal
SNB-75 CNS = tested on: SNB-75 CNS
EKVX NSCLC = tested on: EKVX NSCLC
SK-MEL-5 melanoma = tested on: SK-MEL-5 melanoma
RPMI-8226 leukemia = tested on: RPMI-8226 leukemia
MOLT-4 leukemia = tested on: MOLT-4 leukemia
U251 CNS = tested on: U251 CNS
A549 NSCLC = tested on: A549 NSCLC
HS 578T breast = tested on: HS 578T breast
IGROV1 ovarian = tested on: IGROV1 ovarian
SF-268 CNS = tested on: SF-268 CNS
HOP-62 NSCLC = tested on: HOP-62 NSCLC
SR leukemia = tested on: SR leukemia

O=C1NC(=NC2CCCCCC2)N/C1=C\c1ccc2ncoc2c1
GI50 (MCF7 breast): 3.58 µM | TGI (MCF7 breast): 30.2 µM | GI50 (A498 renal): 2090 nM | TGI (A498 renal): 8.84 µM | GI50 (HOP-92 NSCLC): 6.58 µM | TGI (HOP-92 NSCLC): 58.6 µM | GI50 (SK-MEL-2 melanoma): 2860 nM | TGI (SK-MEL-2 melanoma): 9.46 µM | GI50 (UACC-257 melanoma): 5.95 µM | TGI (UACC-257 melanoma): 23 µM | GI50 (SF-539 CNS): 1010 nM | TGI (SF-539 CNS): 5.75 µM | GI50 (HCT-15 colon): 3.41 µM | TGI (HCT-15 colon): 26.4 µM | GI50 (SN12C renal): 2890 nM | TGI (SN12C renal): 18.1 µM | GI50 (NCI-H226 lung): 2630 nM | TGI (NCI-H226 lung): > 100 µM | GI50 (SNB-19 CNS): 2430 nM | TGI (SNB-19 CNS): 44.6 µM | GI50 (RXF 393 renal): 2020 nM | TGI (RXF 393 renal): 5.32 µM | GI50 (HL-60(TB) leukemia): 3.69 µM | TGI (HL-60(TB) leukemia): 19.3 µM | GI50 (NCI-H460 lung): 4.08 µM | TGI (NCI-H460 lung): 15.6 µM | GI50 (HCT-116 colon): 1920 nM | TGI (HCT-116 colon): 10.9 µM | GI50 (DU-145 prostate): 4.02 µM | TGI (DU-145 prostate): 17.1 µM | GI50 (MDA-MB-468 breast): 2440 nM | TGI (MDA-MB-468 breast): 12.6 µM | GI50 (K-562 leukemia): 4.97 µM | TGI (K-562 leukemia): 37.2 µM | GI50 (786-0 renal): 5.02 µM | TGI (786-0 renal): 47 µM | GI50 (HCC-2998 colon): 12.3 µM | TGI (HCC-2998 colon): 27.6 µM | GI50 (SW-620 colon): 3.27 µM | TGI (SW-620 colon): 18.9 µM | GI50 (CAKI-1 renal): 2610 nM | TGI (CAKI-1 renal): 12.9 µM | GI50 (OVCAR-5 ovarian): 4.33 µM | TGI (OVCAR-5 ovarian): 68.4 µM | GI50 (SF-295 CNS): 7.52 µM | TGI (SF-295 CNS): > 100 µM | GI50 (KM12 colon): 3.83 µM | TGI (KM12 colon): 19.1 µM | GI50 (BT-549 breast): 1940 nM | TGI (BT-549 breast): 12.3 µM | GI50 (MDA-MB-231 breast): 11.3 µM | TGI (MDA-MB-231 breast): 58.4 µM | GI50 (MDA-MB-435): 6.27 µM | TGI (MDA-MB-435): 21.4 µM | GI50 (LOX IMVI melanoma): 4.33 µM | TGI (LOX IMVI melanoma): 20.9 µM | GI50 (OVCAR-3 ovarian): 2130 nM | TGI (OVCAR-3 ovarian): 9.17 µM | GI50 (UACC-62 melanoma): 2740 nM | TGI (UACC-62 melanoma): 12 µM | GI50 (CCRF-CEM leukemia): 2870 nM | TGI (CCRF-CEM leukemia): 16.2 µM | GI50 (PC-3 prostate): 8.53 µM | TGI (PC-3 prostate): 60.6 µM | GI50 (T-47D breast): 2870 nM | TGI (T-47D breast): 63.2 µM | GI50 (SK-OV-3 ovarian): 2710 nM | TGI (SK-OV-3 ovarian): 62.9 µM | GI50 (COLO 205 colon): 3.14 µM | TGI (COLO 205 colon): 14.2 µM | GI50 (NCI-H522 lung): 1270 nM | TGI (NCI-H522 lung): 15 µM | GI50 (M14 melanoma): 8.62 µM | TGI (M14 melanoma): 25.2 µM | GI50 (OVCAR-4 ovarian): 12.4 µM | TGI (OVCAR-4 ovarian): 53.4 µM | GI50 (NCI-H23 lung): 3.16 µM | TGI (NCI-H23 lung): 18.7 µM | GI50 (MALME-3M melanoma): 10.5 µM | TGI (MALME-3M melanoma): 24.4 µM | GI50 (SK-MEL-28 melanoma): 3.5 µM | TGI (SK-MEL-28 melanoma): 14.1 µM | GI50 (OVCAR-8 ovarian): 3.55 µM | TGI (OVCAR-8 ovarian): 18 µM | GI50 (TK-10 renal): 3.86 µM | TGI (TK-10 renal): > 100 µM | GI50 (HT29 colon): 9.36 µM | TGI (HT29 colon): 37.8 µM | GI50 (UO-31 renal): 3.31 µM | TGI (UO-31 renal): 9.46 µM | GI50 (ACHN renal): 2680 nM | TGI (ACHN renal): 10.1 µM | GI50 (SNB-75 CNS): 757 nM | TGI (SNB-75 CNS): 12.3 µM | GI50 (EKVX NSCLC): 8.68 µM | TGI (EKVX NSCLC): 49.4 µM | GI50 (SK-MEL-5 melanoma): 3.66 µM | TGI (SK-MEL-5 melanoma): 14.8 µM | GI50 (RPMI-8226 leukemia): 5.22 µM | TGI (RPMI-8226 leukemia): 31.7 µM | GI50 (MOLT-4 leukemia): 3.51 µM | TGI (MOLT-4 leukemia): 22 µM | GI50 (U251 CNS): 3.54 µM | TGI (U251 CNS): 68.9 µM | GI50 (A549 NSCLC): 3.01 µM | TGI (A549 NSCLC): 32.1 µM | GI50 (HS 578T breast): 2870 nM | TGI (HS 578T breast): 26.5 µM | GI50 (IGROV1 ovarian): 4.35 µM | TGI (IGROV1 ovarian): 34.1 µM | GI50 (SF-268 CNS): 5.61 µM | TGI (SF-268 CNS): 38.8 µM | GI50 (HOP-62 NSCLC): 3.3 µM | TGI (HOP-62 NSCLC): 45.6 µM | GI50 (SR leukemia): 1970 nM | TGI (SR leukemia): 8.09 µM
